Test results: patent publication EP1296672B2, “STABLE PHARMACEUTICAL PRODUCT AND FORMULATION” (LEK Pharmaceuticals d.d., priority 2000, dated 2001)
One block for each compound: values may come before it.

Columns and labels:
[1] = pH of unstabilized pravastatin Na crystals exposed to air atmosphere in different packagings; assay type: physicochemical; conditions: for pH: exposed to air, pH measured in 5% aqueous solution
Procedure: Crystals of pravastatin Na were prepared as follows: […] The resulting clear yellow solution was cooled to 8°C and allowed to stand overnight. Formed radiating clusters of thin, long needle-like crystals were filtered, washed with ethyl acetate (20 ml) and dried. […]

[2] = pH of pravastatin Na crystals exposed to pure carbon dioxide in different packagings; assay type: physicochemical; conditions: unstabilized pravastatin Na, carbon dioxide atmosphere, 5% aqueous solution
Procedure: Therefore the samples, in case of experiments where the correspondingly stabilised pravastatin was used, were exposed to the atmosphere of pure carbon dioxide, so the changes in pH become evident in a relatively short period of time such as a day or two.
The crystals were formed by addition of 400 ml of ethyl acetate containing 2% of water.

[3] = Procedure: In Fig. 1a, a HPLC chromatogram of a freshly perpared sample of pravastating Na is shown. The same pravastating Na was exposed to carbon dioxide atmosphere for one hour, and then a further HPLC chromatogram was prepared (Fig. 1b).

pH ([1]; time 0 hours): 8.3
pH ([1]; time 24 hours): 7.6
Compound: CC[C@H](C)C(=O)O[C@H]1C[C@H](O)C=C2C=C[C@H](C)[C@H](CC[C@@H](O)C[C@@H](O)CC(=O)[O-])[C@H]21.[Na+] [1a, pravastatin Na]

pH ([1]; time 0 hours): 8.3
pH ([1]; time 24 hours): 7.9
Compound: CC[C@H](C)C(=O)O[C@H]1C[C@H](O)C=C2C=C[C@H](C)[C@H](CC[C@@H](O)C[C@@H](O)CC(=O)[O-])[C@H]21.[Na+] [1b, pravastatin Na]

pH ([2]; time 0 h): 7.60
pH ([2]; time 1 h): 7.30
pH ([2]; time 5 h): 7.14
pH ([2]; time 70 h): 7.14
Compound: CC[C@H](C)C(=O)O[C@H]1C[C@H](O)C=C2C=C[C@H](C)[C@H](CC[C@@H](O)C[C@@H](O)CC(=O)[O-])[C@H]21.[Na+] [2a, pravastatin Na]

pH of crystals ([1]; after one day): 7.6
pH of crystals ([1]; freshly prepared crystals): 8.3
Compound: CC[C@H](C)C(=O)O[C@H]1C[C@H](O)C=C2C=C[C@H](C)[C@H](CC[C@@H](O)C[C@@H](O)CC(=O)[O-])[C@H]21.[Na+] [pravastatin Na]
degradation products (HPLC peaks) [3]: two different peaks in front of and three peaks after the peak of pravastatin Na appear
